The structures appear in SMILES notation.

The melting point is the temperature of the solid-liquid transition. Turning to `c1cc(Nc2nnc3c4c(cccc24)-c2ccccc2-3)cc(-n2ccnc2)c1` [Example 39, (Indeno[1,2,3-de]phthalazin-3-yl)-[3-(imidazol-1-yl)-phenyl]-amine], the melting point fell in the range of 223 to 226 °C.

The compound `Cc1ncc(-c2cccc(Nc3ncnc4c3CCOc3ccccc3-4)c2)n1C` [Example 86, N-[3-(1,2-dimethyl-1H-imidazol-5-yl)phenyl]-5,6-dihydro[1]benzoxepino[5,4-d]pyrimidin-4-amine] yielded a melting point of 235 to 237 °C.

For the compound `c1ccc2c(N[C@H]3CC[C@H](Nc4nccc5ccccc45)CC3)nccc2c1` [Example 38, N,N′-Di(isoquinolin-1-yl)-transcyclohexane-1,4-diamine], the melting point lay within 278 to 280 °C.

Take `c1ccc(Cc2nnc(Nc3cccc(-n4ccnc4)c3)c3ccccc23)cc1` [Example 36, (4-Benzyl-phthalazin-1-yl)-(3-imidazol-1-yl-phenyl)-amine]: the melting point lay in the range of 214 to 217 °C.

On to `c1ccc2c(c1)-c1cccc3c(NCCCCNc4nccc5ccccc45)nnc-2c13` [Example 46, N-(Indeno[1,2,3-de]phthalazin-3-yl)-N′-(isoquinolin-1-yl)-butane-1,4-diamine], for which the melting point was in the range of 95 to 105 °C.

Compound `c1cc(CNc2nccc3ccccc23)cc(Nc2nnc3c4c(cccc24)-c2ccccc2-3)c1` [Example 40, (Indeno[1,2,3-de]phthalazin-3-yl)-[3-(isoquinolin-1-ylaminomethyl)-phenyl]-amine] registered a melting point of 149 to 152 °C.

`Cn1cncc1-c1cccc(Nc2nccc3ccccc23)c1` [Example 35, [3-(1-methyl-imidazol-5-yl)-phenyl]-(isoquinolin-1-yl)-amine]: the melting point was 208 to 209 °C.

Regarding `c1cc(Nc2nccc3ccccc23)cc(-n2ccnc2)c1` [Example 44, [3-(Imidazol-1-yl)-phenyl]-(isoquinolin-1-yl)-amine], the melting point lay within 164 to 167 °C.

Take `I.N=C(Nc1cccc(Nc2nnc3c4c(cccc24)-c2ccccc2-3)c1)c1ccccc1`: the melting point fell in the range of 183 to 186 °C.

The compound `CS(=O)(=O)O.N=C(Nc1cccc(Nc2noc3ccccc23)c1)c1ccccc1` [Example 25, N-[3-(benzo[d]isoxazol-3-ylamino)phenyl]benzamidine methanesulfonate] displayed a melting point of 113 to 115 °C.

`Cn1cncc1-c1cccc(Nc2ccc3ccccc3n2)c1` [Example 34, [3-(1-methyl-imidazol-5-yl)-phenyl]-(quinolin-2-yl)-amine] showed a melting point of 60 to 65 °C.

`c1ccc2c(NCCCCNc3nccc4ccccc34)nccc2c1` [Example 37, N,N′-Di(isoquinolin-1-yl)-butane-1,4-diamine] yielded a melting point of 189 to 192 °C.

`c1cc(Nc2nncc3ccccc23)cc(-n2ccnc2)c1` [Example 45, [3-(Imidazol-1-yl)-phenyl]-(phthalazin-1-yl)-amine] returned a melting point of 135 to 137 °C.

In turn, `c1cc(Nc2ccc(-n3cccc3)cn2)cc(-n2ccnc2)c1` [Example 87, N-[3-(imidazol-1-yl)phenyl]-N-[5-(pyrrol-1-yl)pyridin-2-yl]-amine] displayed a melting point of 152 to 156 °C.

For the origin of these results see patent publication US20030176454A1, “N-coating heterocyclic compounds” (priority 2000, published 2003).
